Patent US5601801A, “Radiolabelled angiotensin converting enzyme inhibitors” (Merck Frosst Canada, Inc., priority 1994, dated 1997)
Read-outs that look alike come from different tables or passages of the source.

How the values were obtained:
[1] = Imaging of a New Zealand White Rabbit with ^131 I-3; assay type: in vivo; conditions: intravenous ear injection
Excerpt: It was thought that this small intestine uptake could be due to a difference in mouse ACE or in its distribution as compared to human ACE. It was decided to carry out this imaging experiment in a rabbit since rabbit ACE is believed to be similar to human ACE. It should be noted that it was rabbit ACE which was used in the IC50 assay.
^131 I-3 prepared as described above was taken up in phosphate buffered saline, the solution was filtered through a 0.2μ Millipore filter, and was introduced into the rabbit by intravenous ear injection followed by imaging of the rabbit.

[2] = Biodistribution of ^131 I-3 in CD-1 Mice, normal and blocked with lisinopril; assay type: in vivo; conditions: for tissue uptake at 0.5 h / tissue uptake at 1.5 h / tissue uptake at 3 h / tissue uptake at 6 h: iv, 1 uCi
Procedure: It is well known that there are high ACE concentrations in the lungs, kidneys, pre-optic region of the brain and the blood.^4 Localization of the radioactivity in these organs was expected. […] A blocking study was undertaken to differentiate between specific and non-specific binding.
^131 I-3 was prepared as described above and used in this experiment. The experiment was carried out using male CD-1 mice. The mice were fasted 15 hours prior to injection with 1 μCi of ^131 I-3 by bolus injection into the lateral tail vein. At various times following the dosing, selected mice were sacrificed, exsanguinated and dissected. The desired organs were rinsed, blotted, weighed and counted. For the blocking experiment, mice were treated with 10 μg of lisinopril (by bolus injection into the lateral tail vein) 5 minutes before injection of ^131 I-3.
This blocking experiment was an attempt to differentiate between specific and non-specific binding. […] This is illustrated by the dramatic decrease in radioactivity present in these organs in the blocked biodistribution as compared to the normal biodistribution. […] The anomaly of the first time point has yet to be explained.

[3] = mouse, blood, blocked (lisinopril), read-out: Biodistribution, Blood
[4] = mouse, blood, normal (not blocked), read-out: Biodistribution, Blood
[5] = mouse, contents, blocked (lisinopril), read-out: Biodistribution, Contents
[6] = mouse, contents, normal (not blocked), read-out: Biodistribution, Contents
[7] = mouse, fat, blocked (lisinopril), read-out: Biodistribution, Fat
[8] = mouse, fat, normal (not blocked), read-out: Biodistribution, Fat
[9] = mouse, kidney, blocked (lisinopril), read-out: Biodistribution, Kidney
[10] = mouse, kidney, normal (not blocked), read-out: Biodistribution, Kidney
[11] = mouse, large intestine, blocked (lisinopril), read-out: Biodistribution, lg. Intest.
[12] = mouse, large intestine, normal (not blocked), read-out: Biodistribution, lg. Intest.
[13] = mouse, liver, blocked (lisinopril), read-out: Biodistribution, Liver
[14] = mouse, liver, normal (not blocked), read-out: Biodistribution, Liver
[15] = mouse, lung, blocked (lisinopril), read-out: Biodistribution, Lung
[16] = mouse, lung, normal (not blocked), read-out: Biodistribution, Lung
[17] = mouse, muscle, blocked (lisinopril), read-out: Biodistribution, Muscle
[18] = mouse, muscle, normal (not blocked), read-out: Biodistribution, Muscle
[19] = mouse, small intestine, blocked (lisinopril), read-out: Biodistribution, Sm. Intest.
[20] = mouse, small intestine, normal (not blocked), read-out: Biodistribution, Sm. Intest.
[21] = mouse, stomach, blocked (lisinopril), read-out: Biodistribution, Stomach
[22] = mouse, stomach, normal (not blocked), read-out: Biodistribution, Stomach

kidney uptake, blocked vs normal ([2]; 0.5 hours, pre-injection with lisinopril): slight increase (or no change)
nature of uptake in kidney, lung and small intestine ([2]; blocking experiment): due to specific binding
tissue uptake at 0.5 h ([2]; mouse, blood, 0.5 hours, blocked (lisinopril), read-out: Biodistribution, Blood): 6 %ID/g
tissue uptake at 0.5 h ([2]; mouse, blood, 0.5 hours, normal (not blocked), read-out: Biodistribution, Blood): 5.9 %ID/g
tissue uptake at 1.5 h [2, 3]: 3.2 %ID/g
tissue uptake at 1.5 h [2, 4]: 3.2 %ID/g
tissue uptake at 3 h [2, 3]: 1.3 %ID/g
tissue uptake at 3 h [2, 4]: 3.1 %ID/g
tissue uptake at 6 h [2, 3]: 0.9 %ID/g
tissue uptake at 6 h [2, 4]: 1 %ID/g
tissue uptake at 0.5 h ([2]; mouse, contents, 0.5 hours, blocked (lisinopril), read-out: Biodistribution, Contents): 17.9 %ID/g
tissue uptake at 0.5 h ([2]; mouse, contents, 0.5 hours, normal (not blocked), read-out: Biodistribution, Contents): 21.4 %ID/g
tissue uptake at 1.5 h [2, 5]: 28.5 %ID/g
tissue uptake at 1.5 h [2, 6]: 22.1 %ID/g
tissue uptake at 3 h [2, 5]: 15 %ID/g
tissue uptake at 3 h [2, 6]: 21.4 %ID/g
tissue uptake at 6 h [2, 5]: 48.9 %ID/g
tissue uptake at 6 h [2, 6]: 65.9 %ID/g
tissue uptake at 0.5 h ([2]; mouse, fat, 0.5 hours, blocked (lisinopril), read-out: Biodistribution, Fat): 0.6 %ID/g
tissue uptake at 0.5 h ([2]; mouse, fat, 0.5 hours, normal (not blocked), read-out: Biodistribution, Fat): 0.7 %ID/g
tissue uptake at 1.5 h [2, 7]: 0.5 %ID/g
tissue uptake at 1.5 h [2, 8]: 0.8 %ID/g
tissue uptake at 3 h [2, 7]: 0.2 %ID/g
tissue uptake at 3 h [2, 8]: 0.4 %ID/g
tissue uptake at 6 h [2, 7]: 0.1 %ID/g
tissue uptake at 6 h [2, 8]: 0.2 %ID/g
clearance from small intestine ([2]; mouse, in vivo): quite slow clearance
clearance from the lungs ([2]; mouse, in vivo): rapid clearance from the lungs
uptake in the small intestine ([2]; mouse, in vivo): High uptake in the small intestine
tissue uptake at 0.5 h ([2]; mouse, kidney, 0.5 hours, blocked (lisinopril), read-out: Biodistribution, Kidney): 9.8 %ID/g
tissue uptake at 0.5 h ([2]; mouse, kidney, 0.5 hours, normal (not blocked), read-out: Biodistribution, Kidney): 7.1 %ID/g
tissue uptake at 1.5 h [2, 9]: 2.4 %ID/g
tissue uptake at 1.5 h [2, 10]: 7.1 %ID/g
tissue uptake at 3 h [2, 9]: 1.4 %ID/g
tissue uptake at 3 h [2, 10]: 6.9 %ID/g
tissue uptake at 6 h [2, 9]: 0.5 %ID/g
tissue uptake at 6 h [2, 10]: 9.6 %ID/g
tissue uptake at 0.5 h ([2]; mouse, large intestine, 0.5 hours, blocked (lisinopril), read-out: Biodistribution, lg. Intest.): 1.1 %ID/g
tissue uptake at 0.5 h ([2]; mouse, large intestine, 0.5 hours, normal (not blocked), read-out: Biodistribution, lg. Intest.): 1.5 %ID/g
tissue uptake at 1.5 h [2, 11]: 1.4 %ID/g
tissue uptake at 1.5 h [2, 12]: 1.1 %ID/g
tissue uptake at 3 h [2, 11]: 13.4 %ID/g
tissue uptake at 3 h [2, 12]: 2.6 %ID/g
tissue uptake at 6 h [2, 11]: 14.6 %ID/g
tissue uptake at 6 h [2, 12]: 18.6 %ID/g
tissue uptake at 0.5 h ([2]; mouse, liver, 0.5 hours, blocked (lisinopril), read-out: Biodistribution, Liver): 7.6 %ID/g
tissue uptake at 0.5 h ([2]; mouse, liver, 0.5 hours, normal (not blocked), read-out: Biodistribution, Liver): 7.2 %ID/g
tissue uptake at 1.5 h [2, 13]: 1.4 %ID/g
tissue uptake at 1.5 h [2, 14]: 4.9 %ID/g
tissue uptake at 3 h [2, 13]: 1.9 %ID/g
tissue uptake at 3 h [2, 14]: 3.8 %ID/g
tissue uptake at 6 h [2, 13]: 0.3 %ID/g
tissue uptake at 6 h [2, 14]: 0.8 %ID/g
tissue uptake at 0.5 h ([2]; mouse, lung, 0.5 hours, blocked (lisinopril), read-out: Biodistribution, Lung): 1 %ID/g
tissue uptake at 0.5 h ([2]; mouse, lung, 0.5 hours, normal (not blocked), read-out: Biodistribution, Lung): 4.8 %ID/g
tissue uptake at 1.5 h [2, 15]: 0.6 %ID/g
tissue uptake at 1.5 h [2, 16]: 1.8 %ID/g
tissue uptake at 3 h [2, 15]: 0.5 %ID/g
tissue uptake at 3 h [2, 16]: 1.7 %ID/g
tissue uptake at 6 h [2, 15]: 0.3 %ID/g
tissue uptake at 6 h [2, 16]: 0.5 %ID/g
tissue uptake at 0.5 h ([2]; mouse, muscle, 0.5 hours, blocked (lisinopril), read-out: Biodistribution, Muscle): 1.1 %ID/g
tissue uptake at 0.5 h ([2]; mouse, muscle, 0.5 hours, normal (not blocked), read-out: Biodistribution, Muscle): 1.1 %ID/g
tissue uptake at 1.5 h [2, 17]: 0.4 %ID/g
tissue uptake at 1.5 h [2, 18]: 0.8 %ID/g
tissue uptake at 3 h [2, 17]: 0.3 %ID/g
tissue uptake at 3 h [2, 18]: 0.6 %ID/g
tissue uptake at 6 h [2, 17]: 0.2 %ID/g
tissue uptake at 6 h [2, 18]: 0.3 %ID/g
tissue uptake at 0.5 h ([2]; mouse, small intestine, 0.5 hours, blocked (lisinopril), read-out: Biodistribution, Sm. Intest.): 19.8 %ID/g
tissue uptake at 0.5 h ([2]; mouse, small intestine, 0.5 hours, normal (not blocked), read-out: Biodistribution, Sm. Intest.): 31.9 %ID/g
tissue uptake at 1.5 h [2, 19]: 21.7 %ID/g
tissue uptake at 1.5 h [2, 20]: 27 %ID/g
tissue uptake at 3 h [2, 19]: 14.2 %ID/g
tissue uptake at 3 h [2, 20]: 27 %ID/g
tissue uptake at 6 h [2, 19]: 1.2 %ID/g
tissue uptake at 6 h [2, 20]: 20.1 %ID/g
tissue uptake at 0.5 h ([2]; mouse, stomach, 0.5 hours, blocked (lisinopril), read-out: Biodistribution, Stomach): 24.2 %ID/g
tissue uptake at 0.5 h ([2]; mouse, stomach, 0.5 hours, normal (not blocked), read-out: Biodistribution, Stomach): 25.1 %ID/g
tissue uptake at 1.5 h [2, 21]: 13.3 %ID/g
tissue uptake at 1.5 h [2, 22]: 28.7 %ID/g
tissue uptake at 3 h [2, 21]: 12.8 %ID/g
tissue uptake at 3 h [2, 22]: 14.2 %ID/g
tissue uptake at 6 h [2, 21]: 4.2 %ID/g
tissue uptake at 6 h [2, 22]: 5.1 %ID/g
blocking of uptake in kidney and small intestine ([2]; pre-injection with lisinopril): effectively blocked at all time points
SMILES: O=C(NCCCC[C@H](N[C@@H](CCc1ccccc1)C(=O)O)C(=O)N1CCC[C@H]1C(=O)O)c1cccc([131I])c1 [^131 I-3, Lisinopril N^ε -radioiodobezamide]
organs imaged [1]: clearly show the lungs and kidneys at early time points, as well as in the bladder at later time points
uptake in kidneys and lungs ([2]; early time points): uptake in the kidneys and lungs at early time points
uptake in all other organs, blocked vs normal ([2]; pre-injection with lisinopril): no difference in uptake between the normal and blocked biodistributions
